This note sets out measurements from patent US10538498B2, “1,3,4-oxadiazole sulfonamide derivative compounds as histone deacetylase 6 inhibitor, and the pharmaceutical composition comprising the same” (Chong Kun Dang Pharmaceutical Corp., priority 2015, dated 2020).

Molecules are shown by their SMILES.

The test addresses T1, human recombinant HDAC6 (Homo sapiens, UniProt Q9UBN7).
T1 construct: purchased Calbiochem 382180
T1 sequence (Q9UBN7 1-1215): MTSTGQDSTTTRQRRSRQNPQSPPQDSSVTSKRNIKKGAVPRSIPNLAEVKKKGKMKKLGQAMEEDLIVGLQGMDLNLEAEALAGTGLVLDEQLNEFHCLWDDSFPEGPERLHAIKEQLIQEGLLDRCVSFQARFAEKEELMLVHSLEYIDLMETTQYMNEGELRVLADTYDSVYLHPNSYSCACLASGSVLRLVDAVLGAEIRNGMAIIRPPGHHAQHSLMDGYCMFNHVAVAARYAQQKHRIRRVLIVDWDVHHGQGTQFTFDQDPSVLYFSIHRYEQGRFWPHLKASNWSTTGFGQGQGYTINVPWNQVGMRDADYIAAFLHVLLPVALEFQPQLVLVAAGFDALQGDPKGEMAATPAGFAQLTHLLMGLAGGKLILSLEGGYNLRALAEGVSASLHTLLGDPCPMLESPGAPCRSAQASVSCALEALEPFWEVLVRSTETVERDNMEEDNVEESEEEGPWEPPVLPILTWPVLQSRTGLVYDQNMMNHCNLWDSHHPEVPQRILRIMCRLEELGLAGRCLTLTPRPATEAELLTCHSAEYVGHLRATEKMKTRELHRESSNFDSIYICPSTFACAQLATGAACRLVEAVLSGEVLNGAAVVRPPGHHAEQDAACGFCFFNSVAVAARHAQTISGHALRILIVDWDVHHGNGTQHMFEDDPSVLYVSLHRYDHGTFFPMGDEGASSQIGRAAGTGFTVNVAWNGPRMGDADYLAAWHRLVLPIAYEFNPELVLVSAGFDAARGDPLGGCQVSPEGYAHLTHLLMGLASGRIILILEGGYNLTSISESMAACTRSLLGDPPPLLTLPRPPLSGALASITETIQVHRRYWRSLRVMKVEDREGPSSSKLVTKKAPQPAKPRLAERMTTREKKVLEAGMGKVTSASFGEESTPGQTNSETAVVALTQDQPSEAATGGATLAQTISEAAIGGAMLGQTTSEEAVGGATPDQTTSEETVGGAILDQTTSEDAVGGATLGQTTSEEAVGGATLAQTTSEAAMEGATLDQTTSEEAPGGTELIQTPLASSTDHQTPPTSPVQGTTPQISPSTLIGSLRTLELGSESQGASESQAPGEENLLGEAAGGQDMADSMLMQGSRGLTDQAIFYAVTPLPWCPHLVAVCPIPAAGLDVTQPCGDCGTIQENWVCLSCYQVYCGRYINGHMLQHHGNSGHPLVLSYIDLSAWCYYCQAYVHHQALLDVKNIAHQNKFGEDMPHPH
Kind of test: HDAC6 enzyme activity inhibition assay (HDAC Fluorimetric Drug Discovery Kit). The class given is biochemical. Particulars: for HDAC6 selectivity (fold): HDAC1 vs HDAC6; for IC50: same protocol as the HDAC1 enzyme activity test. The method in brief:
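Human recombinant enzyme, 0.3 μg, incubated with 10 μM Fluor de Lys-SIRT1 substrate and 5-fold compound dilutions at 30° C for 60 min. Developer II added for 30 min, then fluorescence read (Ex 360/Em 460). IC50 values derived from the fluorescence data.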

In general, IC50 refers to the point on the concentration scale where inhibition reaches its midpoint.

As for `O=S(=O)(CCN1CCN(Cc2ccccc2)CC1)N(Cc1ccc(-c2nnc(C(F)F)o2)cc1)c1ccccc1` [Compound 11663, 2-(4-benzylpiperazin-1-yl)-N-(4-(5-(difluoromethyl)-1,3,4-oxadiazol-2-yl)benzyl)-N-phenylethanesulfonamide], the “HDAC6 selectivity (fold)” value was determined as 578 fold and the IC50 was determined as 173 nM.
Taken in the same sequence, the figures for `CS(=O)(=O)N(Cc1ccc(-c2nnc(C(F)F)o2)cc1)c1cncnc1` [Compound 11636, N-(4-(5-(difluoromethyl)-1,3,4-oxadiazol-2-yl)benzyl)-N-(pyrimidin-5-yl)methanesulfonamide] were 862 fold and 116 nM.
Taken in the same sequence, the figures for `O=S(=O)(CCCN1CCOCC1)N(Cc1ccc(-c2nnc(C(F)F)o2)cn1)c1ccccc1` [Compound 11718, N-((5-(5-(difluoromethyl)-1,3,4-oxadiazol-2-yl)pyridin-2-yl)methyl)-3-morpholino-N-phenylpropane-1-sulfonamide] were 1353 fold and 73.9 nM.
Taken in the same sequence, the figures for `O=S(=O)(CCN1CCC(c2ccc(F)cc2)CC1)N(Cc1ccc(-c2nnc(C(F)F)o2)cc1)c1ccccc1` [Compound 11819, N-(4-(5-(difluoromethyl)-1,3,4-oxadiazol-2-yl)benzyl)-2-(4-(4-fluorophenyl)piperidin-1-yl)-N-phenylethane-1-sulfonamide] were 284 fold and 351 nM.
As to `O=S(=O)(CCN1CC[C@H](CO)C1)N(Cc1ccc(-c2nnc(C(F)F)o2)cc1)c1ccccc1` [Compound 11804, (S)—N-(4-(5-(difluoromethyl)-1,3,4-oxadiazol-2-yl)benzyl)-2-(3-(hydroxymethyl)pyrrolidin-1-yl)-N-phenylethane-1-sulfonamide], the “HDAC6 selectivity (fold)” value is listed as 3115 fold and the IC50 was determined as 32.1 nM.
The corresponding values for `CS(=O)(=O)N(Cc1ccc(-c2nnc(C(F)F)o2)cc1F)c1cccc(Cl)c1` [Compound 11191, N-(3-chlorophenyl)-N-(4-(5-(difluoromethyl)-1,3,4-oxadiazol-2-yl)-2-fluorobenzyl)methanesulfonamide] are 5000 fold and 20 nM.
Taken in the same sequence, the figures for `CC(=O)N1CC(N2CCC(S(=O)(=O)N(Cc3ccc(-c4nnc(C(F)F)o4)cn3)c3cccc(C)c3)CC2)C1` [Compound 11838, 1-(1-acetylazetidin-3-yl)-N-((5-(5-(difluoromethyl)-1,3,4-oxadiazol-2-yl)pyridin-2-yl)methyl)-N-(m-tolyl)piperidine-4-sulfonamide] were 2241 fold and 44.6 nM.
For `CCS(=O)(=O)N(Cc1ccc(-c2nnc(C(F)F)o2)cc1F)c1cccc(C2CCN(C)CC2)c1` [Compound 11427, N-(4-(5-(difluoromethyl)-1,3,4-oxadiazol-2-yl)-2-fluorobenzyl)-N-(3-(1-methylpiperidin-4-yl)phenyl)ethanesulfonamide], the “HDAC6 selectivity (fold)” value is listed as 352 fold and the IC50 was found to be 284 nM.
On to `CS(=O)(=O)N(Cc1ncc(-c2nnc(C(F)F)o2)cn1)c1ccccc1` [Compound 11564, N-((5-(5-(difluoromethyl)-1,3,4-oxadiazol-2-yl)pyrimidin-2-yl)methyl)-N-phenylmethanesulfonamide], for which the “HDAC6 selectivity (fold)” value is reported as 4762 fold and the IC50 is 21 nM.
The corresponding values for `CCS(=O)(=O)N(Cc1ccc(-c2nnc(C(F)(F)F)o2)cc1F)c1cccc(CN2CCN(C(C)=O)CC2)c1` [Compound 11406, N-(3-((4-acetylpiperazin-1-yl)methyl)phenyl)-N-(2-fluoro-4-(5-(trifluoromethyl)-1,3,4-oxadiazol-2-yl)benzyl)ethanesulfonamide] are 435 fold and 230 nM.
The corresponding values for `CS(=O)(=O)N(Cc1ccc(-c2nnc(C(F)F)o2)cn1)c1cccnc1` [Compound 11353, N-((5-(5-(difluoromethyl)-1,3,4-oxadiazol-2-yl)pyridin-2-yl)methyl)-N-(pyridin-3-yl)methanesulfonamide] are 3846 fold and 26 nM.
The corresponding values for `CCS(=O)(=O)N(Cc1ccc(-c2nnc(C(F)F)o2)cc1F)c1cccc(CN2CCN(C)CC2)c1` [Compound 11405, N-(4-(5-(difluoromethyl)-1,3,4-oxadiazol-2-yl)-2-fluorobenzyl)-N-(3-((4-methylpiperazin-1-yl)methyl)phenyl)ethanesulfonamide] are 1493 fold and 67 nM.
Take `CS(=O)(=O)N(Cc1ccc(-c2nnc(C(F)F)o2)cn1)C1CCCCC1` [Compound 11351, N-cyclohexyl-N-((5-(5-(difluoromethyl)-1,3,4-oxadiazol-2-yl)pyridin-2-yl)methyl)methanesulfonamide]: the “HDAC6 selectivity (fold)” value is reported as 1449 fold and the IC50 was found to be 69 nM.
The corresponding values for `CCN1CCC(S(=O)(=O)N(Cc2ccc(-c3nnc(C(F)F)o3)cn2)c2ccccc2)CC1` [Compound 11368, N-((5-(5-(difluoromethyl)-1,3,4-oxadiazol-2-yl)pyridin-2-yl)methyl)-1-ethyl-N-phenylpiperidine-4-sulfonamide] are 6667 fold and 15 nM.
Taken in the same sequence, the figures for `CN1CCC(S(=O)(=O)N(Cc2ccc(-c3nnc(C(F)F)o3)cn2)c2ccccc2)CC1` [Compound 11367, N-((5-(5-(difluoromethyl)-1,3,4-oxadiazol-2-yl)pyridin-2-yl)methyl)-1-methyl-N-phenylpiperidine-4-sulfonamide] were 6250 fold and 16 nM.
Taken in the same sequence, the figures for `CS(=O)(=O)N1CC(N2CCN(CCS(=O)(=O)N(Cc3ccc(-c4nnc(C(F)F)o4)cc3F)c3ccc(F)c(Cl)c3)CC2)C1` [Compound 11582, N-(3-chloro-4-fluorophenyl)-N-(4-(5-(difluoromethyl)-1,3,4-oxadiazol-2-yl)-2-fluorobenzyl)-2-(4-(1-(methylsulfonyl)azetidin-3-yl)piperazin-1-yl)ethane-1-sulfonamide] were 4348 fold and 23 nM.
`CS(=O)(=O)N(Cc1ccc(-c2nnc(C(F)(F)F)o2)cc1F)c1cncnc1` [Compound 11194, N-(2-fluoro-4-(5-(trifluoromethyl)-1,3,4-oxadiazol-2-yl)benzyl)-N-(pyrimidin-5-yl)methanesulfonamide]: the “HDAC6 selectivity (fold)” value was 1538 fold and the IC50 turned out to be 65 nM.
The corresponding values for `CCS(=O)(=O)N(Cc1ccc(-c2nnc(C(F)F)o2)cn1)c1ccc(CN2CCN(C(C)=O)CC2)cc1` [Compound 11386, N-(4-((4-acetylpiperazin-1-yl)methyl)phenyl)-N-((5-(5-(difluoromethyl)-1,3,4-oxadiazol-2-yl)pyridin-2-yl)methyl)ethanesulfonamide] are 1316 fold and 76 nM.
Taken in the same sequence, the figures for `O=S(=O)(C1CCN([C@H]2CC[C@@H](F)CC2)CC1)N(Cc1ccc(-c2nnc(C(F)F)o2)cc1)c1cccc(Cl)c1` [Compound 11726, N-(3-chlorophenyl)-N-(4-(5-(difluoromethyl)-1,3,4-oxadiazol-2-yl)benzyl)-1-((1s,4s)-4-fluorocyclohexyl)piperidine-4-sulfonamide] were 782 fold and 128 nM.
Consider `CCS(=O)(=O)N(Cc1ccc(-c2nnc(C(F)F)o2)cc1F)c1cccc(CN2CCN(S(C)(=O)=O)CC2)c1` [Compound 11404, N-(4-(5-(difluoromethyl)-1,3,4-oxadiazol-2-yl)-2-fluorobenzyl)-N-(3-((4-(methylsulfonyl)piperazin-1-yl)methyl)phenyl)ethanesulfonamide], for which the “HDAC6 selectivity (fold)” value is reported as 952 fold and the IC50 amounted to 105 nM.
Taken in the same sequence, the figures for `O=S(=O)(CCN1CCC[C@H](O)C1)N(Cc1ccc(-c2nnc(C(F)F)o2)cc1)c1ccccc1` [Compound 11817, (S)—N-(4-(5-(difluoromethyl)-1,3,4-oxadiazol-2-yl)benzyl)-2-(3-hydroxypiperidin-1-yl)-N-phenylethane-1-sulfonamide] were 1718 fold and 58.2 nM.
